What follows are compounds tested on IFNα-induced STAT phosphorylation (pSTAT5) in human whole blood, CD3 positive population (assay: IFNα-Induced STAT Phosphorylation in Human Whole Blood). Conditions: 1 h incubation with compound, 1000 U/mL recombinant human IFNα A/D for 15 min, pSTAT5 (pY694) median fluorescence in CD3 positive cells, read-out: Human WB IFNα-Induced Stat Phosph. (IC50).
Format: cell-based
Description: IFNα-Induced STAT Phosphorylation in Human Whole Blood
After an hour long incubation with compound, human whole blood (drawn with either EDTA or ACD-A as anti-coagulant) was stimulated with 1000 U/mL recombinant human IFNα A/D (R&D Systems 11200-2) for 15 min. The stimulation was stopped by adding Fix/Lyse buffer (BD 558049). Cells were stained with a CD3 FITC antibody (BD 555916), washed, and permeabilized on ice using Perm III buffer (BD 558050). Cells were then stained with an Alexa-Fluor 647 pSTAT5 (pY694) antibody (BD 612599) for 30 min prior to analysis on the FACS Canto II. The amount of pSTAT5 expression was quantitated by median fluorescence intensity after gating on the CD3 positive population.

Row | SMILES | IC50 [nM]
1 | [2H]C([2H])([2H])NC(=O)c1nnc(NC(=O)N(C)CCc2ccccc2)cc1Nc1cccc(-c2ncn(C)n2)c1OC [Example 39] | 2460
2 | [2H]C([2H])([2H])NC(=O)c1nnc(NC(=O)OC)cc1Nc1cccc(-c2noc(CN3CCN(S(C)(=O)=O)CC3)n2)c1OC [Example 66] | 130
3 | [2H]C([2H])([2H])NC(=O)c1nnc(NC(=O)OC)cc1Nc1cccc(-c2ncc(C(=O)N3CCC3)s2)c1OC [Example 55] | 760
4 | [2H]C([2H])([2H])NC(=O)c1nnc(NC(=O)NC)cc1Nc1cccc(-c2noc(C)n2)c1OC [Example 3, 4-((2-methoxy-3-(5-methyl-1,2,4-oxadiazol-3-yl)phenyl)amino)-N-(trideuteromethyl)-6-(3-methylureido)pyridazine-3-carboxamide] | 190
5 | [2H]C([2H])([2H])NC(=O)c1cnc(NC(=O)OC)cc1Nc1cccc(-c2noc(CN3CCOCC3)n2)c1OC [Example 71] | 300
6 | [2H]C([2H])([2H])NC(=O)c1nnc(NC(=O)N(C)CC)cc1Nc1cccc(-c2ncn(C)n2)c1OC [Example 42] | 350
7 | [2H]C([2H])([2H])NC(=O)c1nnc(NC(=O)OC)cc1Nc1cccc(-c2ncc(C(=O)N(C)C)s2)c1OC [Example 53] | 840
8 | [2H]C([2H])([2H])NC(=O)c1cnc(NC(=O)OC(C)C)cc1Nc1cccc(-c2ncn(C)n2)c1OC [Example 32] | 200
9 | CNC(=O)Nc1cc(Nc2ccccc2S(C)(=O)=O)c(C(=O)NC)cn1 [Example 10] | 3690
10 | [2H]C([2H])([2H])NC(=O)c1nnc(NC(=O)N2CCOCC2)cc1Nc1cccc(-c2ncn(C)n2)c1OC [Example 26] | 1180
11 | [2H]C([2H])([2H])NC(=O)c1nnc(NC(=O)N(C)CC(=C)C)cc1Nc1cccc(-c2ncn(C)n2)c1OC [Example 47] | 430
12 | [2H]C([2H])([2H])NC(=O)c1nnc(NC(=O)OC)cc1Nc1cccc(-c2ncc(C(=O)N3CCC(N4CCN(CCO)CC4)CC3)s2)c1OC [Example 57] | 250
13 | [2H]C([2H])([2H])NC(=O)c1cnc(NC(=O)OC)cc1Nc1cccc(-c2ncn(C)n2)c1OC [Example 30] | 100
14 | [2H]C([2H])([2H])NC(=O)c1nnc(NC(=O)NCC#C)cc1Nc1cccc(-c2ncn(C)n2)c1OC [Example 11] | 60

— patent US20230150979A1, “AMIDE-DISUBSTITUTED PYRIDINE OR PYRIDAZINE COMPOUNDS” (BRISTOL-MYERS SQUIBB COMPANY, priority 2019, published 2023)
